# Assay results: ChEMBL document CHEMBL3885861, “Open TG-GATES”
# Organism: Rattus norvegicus
# Assay: Open TG-GATES - Regimen: Daily Repeat
# Assay type: toxicity, organism-based, Sprague-Dawley
# Design: regimen Daily Repeat, gender Male, age 6 weeks
# Conditions: in vivo, po, route gavage; for gamma-GTP / ALP / ALT / AST / BUN / CRE / Ca / DBIL / GLC / IP / K / LDH / Na / PL / RALB / TBIL / TC / TG / TP: tissue Plasma; for APTT / Bas / Eos / Fbg / Hb / Ht / Lym / MCH / MCHC / MCV / Mono / Neu / PT / Plat / RBC / Ret / WBC: tissue Blood; for KIDNEY_L / KIDNEY_R / KIDNEY_TOTAL: tissue Kidney; for LIVER: tissue Liver
# [1] = 30 mg/kg, 72 h, dose level Middle, time 3 day
# [2] = 30 mg/kg, […], dose level Middle, time 7 day
# [3] = 30 mg/kg, […], dose level Middle, time 14 day
# [4] = 30 mg/kg, […], dose level Middle, time 28 day
smiles,measurement,setting,value
CSc1ccc2c(c1)N(CCC1CCCCN1C)c1ccccc1S2 (stereo not drawn) [THIORIDAZINE],gamma-GTP,"10 mg/kg, […], dose level Low, time 28 day",1.4 IU/L
same,TERMINAL_BW,[1],234.2 g
same,APTT,[1],15.8 s
same,Bas,[1],0%
same,Eos,[1],1%
same,Fbg,[1],219.8 mg/dL
same,Hb,[1],14.1 g/dL
same,Ht,[1],42.2%
same,Lym,[1],79.6%
same,MCH,[1],21.7 pg
same,MCHC,[1],33.4%
same,MCV,[1],64.9 fL
same,Mono,[1],7%
same,Neu,[1],12.6%
same,PT,[1],11.9 s
same,Plat,[1],110.7 x10_4/uL
same,RBC,[1],651 x10_4/ul
same,Ret,[1],8%
same,WBC,[1],122.3 x10_2/uL
same,KIDNEY_L,[1],1 g
same,KIDNEY_R,[1],1.1 g
same,KIDNEY_TOTAL,[1],2.1 g
same,LIVER,[1],12.3 g
same,ALP,[1],1002.8 IU/L
same,ALT,[1],44 IU/L
same,AST,[1],66.2 IU/L
same,BUN,[1],19 mg/dL
same,CRE,[1],0.5 mg/dL
same,Ca,[1],11.3 mg/dL
same,DBIL,[1],0.012 mg/dL
same,GLC,[1],188 mg/dL
same,IP,[1],9.3 mg/dL
same,K,[1],4.9 meq/L
same,LDH,[1],88.6 IU/L
same,Na,[1],139 meq/L
same,PL,[1],176.2 mg/dL
same,RALB,[1],4.1 g/dL
same,TBIL,[1],0.3 mg/dL
same,TC,[1],92 mg/dL
same,TG,[1],105.6 mg/dL
same,TP,[1],6 g/dL
same,gamma-GTP,[1],1.6 IU/L
same,TERMINAL_BW,[2],271.1 g
same,TERMINAL_BW,[3],301.4 g
same,TERMINAL_BW,[4],394 g
same,APTT,[2],15.4 s
same,Bas,[2],0%
same,Eos,[2],0.6%
same,Fbg,[2],235.6 mg/dL
same,Hb,[2],14.9 g/dL
same,Ht,[2],44.8%
same,Lym,[2],82.4%
same,MCH,[2],21.1 pg
same,MCHC,[2],33.2%
same,MCV,[2],63.6 fL
same,Mono,[2],5.8%
same,Neu,[2],11%
same,PT,[2],11.9 s
same,RBC,[2],705.6 x10_4/ul
same,Ret,[2],5.7%
same,WBC,[2],139.8 x10_2/uL
same,APTT,[3],16.2 s
same,Bas,[3],0%
same,Eos,[3],1%
same,Fbg,[3],224.8 mg/dL
same,Hb,[3],14.5 g/dL
same,Ht,[3],41%
same,Lym,[3],76.8%
same,MCH,[3],22.1 pg
same,MCHC,[3],37.1%
same,MCV,[3],59.7 fL
same,Mono,[3],8.4%
same,Neu,[3],14.4%
same,PT,[3],11.6 s
same,Plat,[3],101.3 x10_4/uL
same,RBC,[3],685.8 x10_4/ul
same,Ret,[3],3.8%
same,WBC,[3],148.2 x10_2/uL
same,APTT,[4],18 s
same,Bas,[4],0%
same,Eos,[4],1%
same,Fbg,[4],237.2 mg/dL
same,Hb,[4],15.5 g/dL
same,Ht,[4],46.8%
same,Lym,[4],83%
same,MCH,[4],19.6 pg
same,MCHC,[4],33.3%
same,MCV,[4],58.9 fL
same,Mono,[4],5.8%
same,PT,[4],11.9 s
same,Plat,[4],106.6 x10_4/uL
same,RBC,[4],795.4 x10_4/ul
same,Ret,[4],5.4%
same,WBC,[4],161 x10_2/uL
same,KIDNEY_L,[2],1.2 g
same,KIDNEY_R,[2],1.2 g
same,KIDNEY_TOTAL,[2],2.3 g
same,KIDNEY_L,[3],1.3 g
same,KIDNEY_R,[3],1.3 g
same,KIDNEY_TOTAL,[3],2.5 g
same,KIDNEY_L,[4],1.4 g
same,KIDNEY_R,[4],1.5 g
same,KIDNEY_TOTAL,[4],2.9 g
same,LIVER,[2],13.7 g
same,LIVER,[3],14 g
same,LIVER,[4],17.9 g
same,ALP,[2],818.4 IU/L
same,ALT,[2],37.4 IU/L
same,AST,[2],64.2 IU/L
same,BUN,[2],17.8 mg/dL
same,CRE,[2],0.5 mg/dL
same,Ca,[2],11.3 mg/dL
same,DBIL,[2],0.008 mg/dL
same,GLC,[2],183.8 mg/dL
same,IP,[2],8.6 mg/dL
same,K,[2],4.8 meq/L
same,LDH,[2],84.8 IU/L
same,Na,[2],138.6 meq/L
same,PL,[2],174 mg/dL
same,RALB,[2],4.1 g/dL
same,TBIL,[2],0.3 mg/dL
same,TC,[2],88.4 mg/dL
same,TG,[2],124.8 mg/dL
same,TP,[2],6.1 g/dL
same,gamma-GTP,[2],1.8 IU/L
same,ALP,[3],731.4 IU/L
same,ALT,[3],34.6 IU/L
same,AST,[3],65.8 IU/L
same,BUN,[3],16.4 mg/dL
same,CRE,[3],0.5 mg/dL
same,Ca,[3],10.5 mg/dL
same,DBIL,[3],0.02 mg/dL
same,GLC,[3],179.2 mg/dL
same,IP,[3],7.9 mg/dL
same,K,[3],4.8 meq/L
same,LDH,[3],103.2 IU/L
same,Na,[3],139.4 meq/L
same,PL,[3],159.4 mg/dL
same,RALB,[3],4.1 g/dL
same,TBIL,[3],0.3 mg/dL
same,TC,[3],77.6 mg/dL
same,TG,[3],139.8 mg/dL
same,TP,[3],6.2 g/dL
same,gamma-GTP,[3],1 IU/L
same,ALP,[4],625.2 IU/L
same,ALT,[4],39.8 IU/L
same,AST,[4],66.2 IU/L
same,BUN,[4],20.2 mg/dL
same,CRE,[4],0.6 mg/dL
same,Ca,[4],11 mg/dL
same,DBIL,[4],0.002 mg/dL
same,GLC,[4],183.2 mg/dL
same,IP,[4],7.3 mg/dL
same,K,[4],4.2 meq/L
same,LDH,[4],152.2 IU/L
same,Na,[4],140.2 meq/L
same,PL,[4],159.4 mg/dL
same,RALB,[4],4.2 g/dL
same,TBIL,[4],0.3 mg/dL
same,TC,[4],77.4 mg/dL
same,TG,[4],122.6 mg/dL
same,TP,[4],6.4 g/dL
same,gamma-GTP,[4],1.6 IU/L
